Experimental data as given in patent US12404283B2, “c-MYC mRNA translation modulators and uses thereof in the treatment of cancer” (Anima Biotech Inc., priority 2022, dated 2025).
Counter-ions that a name gives are not always drawn.

Test system: c-Myc
Assay: c-Myc immunofluorescence assay
Format: cell-based, human
Conditions: A549 cells, 24 hours treatment, anti-c-Myc immunofluorescence
Description: A549 human non-small cell lung carcinoma cells were treated for 24 hours with increasing compound concentration, cells were fixed and stained with a nuclei stain (DAPI) and anti-c-Myc fluorescent antibody. The c-Myc signal was quantified by image analysis, and data was exported and analyzed using TIBCO Spotfire® (TIBCO Corporation). Dose response curves were generated and fitted with logaristic regression to calculate potency (EC50 values). Potency values are presented in Table 2 for all compounds and are shown for selected compounds (FIG. 4).
A549 cells were grown in 384-wells plates (Perkin Elmer, Cat. 6057300) for 48 hours, treated with compounds and then fixed for 20 min in 4% paraformaldehyde. After that permeabilization was done using 0.1% Triton X-100 in PBS for 20 min. Primary anti-c-Myc antibody (Abcam, ab32072) staining was performed for 90 min at room temperature. Cells then were washed twice with PBS and incubated with secondary antibody (Abcam, ab150075) for 90 min at room temperature. Nuclei were stained with DAPI for 10 min and washed twice with PBS.
Cell images were taken with Operetta (Perkin Elmer, USA), a wide-field fluorescence microscope at 20× magnification. After acquisition, the images were transferred to Columbus software (Perkin-Elmer) for image analysis. In Columbus, cells were identified by their nucleus, using the “Find Nuceli” module and cytoplasm was detected based on the secondary antibody channel. Subsequently, the fluorescent signal was enumerated in the identified cell region. Then data was exported to a data analysis and visualization software, Tibco Spotfire, USA.

Structure (SMILES) | Myc Efficacy (−LogEC50)
CN1CCC(NC(=O)c2ccc3c(c2)sc2nc(-c4ccc(C5(F)CCNCC5)cc4F)cn23)CC1 [Compound 536, 2-(2-fluoro-4-(4-fluoropiperidin-4-yl)phenyl)-N-(1-methylpiperidin-4-yl)benzo[d]imidazo[2,1-b]thiazole-7-carboxamide] | +++ (+++ ≥6)
O=C1CNC(c2ccc(-c3cn4c(n3)sc3cc(C(=O)NC5CCOCC5)ccc34)c(F)c2)C1 (centres unmarked) [Compound 537, 2-(2-fluoro-4-(4-oxopyrrolidin-2-yl)phenyl)-N-(tetrahydro-2H-pyran-4-yl)benzo[d]imidazo[2,1-b]thiazole-7-carboxamide] | +++ (+++ ≥6)
NC(CO)c1ccc(-c2cn3c(n2)sc2cc(C(=O)NCCCN4CCC(F)CC4)ccc23)c(F)c1 (centres unmarked) [Compound 539, 2-(4-(1-amino-2-hydroxyethyl)-2-fluorophenyl)-N-(3-(4-fluoropiperidin-1-yl)propyl)benzo[d]imidazo[2,1-b]thiazole-7-carboxamide] | +++ (+++ ≥6)
O=C(NCCCN1CCC(F)CC1)c1ccc2c(c1)sc1nc(-c3ccc(C4CC(C(F)F)CN4)cc3F)cn12 (centres unmarked) [Compound 542, 2-(4-(4-(difluoromethyl)pyrrolidin-2-yl)-2-fluorophenyl)-N-(3-(4-fluoropiperidin-1-yl)propyl)benzo[d]imidazo[2,1-b]thiazole-7-carboxamide] | +++ (+++ ≥6)
O=C(NCCCN1CCC(F)CC1)c1ccc2c(c1)sc1nc(-c3ccc(C4CCNO4)cc3F)cn12 (centres unmarked) [Compound 543, 2-(2-fluoro-4-(isoxazolidin-5-yl)phenyl)-N-(3-(4-fluoropiperidin-1-yl)propyl)benzo[d]imidazo[2,1-b]thiazole-7-carboxamide] | +++ (+++ ≥6)
CN1CCC(NC(=O)c2ccc3c(c2)sc2nc(-c4ccc(N5CCNCC5)cc4F)cn23)CC1 [Compound 547, 2-(2-fluoro-4-(piperazin-1-yl)phenyl)-N-(1-methylpiperidin-4-yl)benzo[d]imidazo[2,1-b]thiazole-7-carboxamide] | +++ (+++ ≥6)
CC(=O)Nc1ccc2c(c1)sc1nc(-c3ccc(C4CCCN4)cc3F)cn12 (centres unmarked) [Compound 548, N-(2-(2-fluoro-4-(pyrrolidin-2-yl)phenyl)benzo[d]imidazo[2,1-b]thiazol-7-yl)acetamide] | +++ (+++ ≥6)
CN1CCC(C(=O)Nc2ccc3c(c2)sc2nc(-c4ccc(C5CCCN5)cc4F)cn23)CC1 (centres unmarked) [Compound 593, N-(2-(2-fluoro-4-(pyrrolidin-2-yl)phenyl)benzo[d]imidazo[2,1-b]thiazol-7-yl)-1-methylpiperidine-4-carboxamide dihydrochloride] | +++ (+++ ≥6)
O=C(Nc1ccc2c(c1)sc1nc(-c3ccc(C4CCCN4)cc3F)cn12)C1CCOCC1 (centres unmarked) [Compound 594, N-(2-(2-fluoro-4-(pyrrolidin-2-yl)phenyl)benzo[d]imidazo[2,1-b]thiazol-7-yl)tetrahydro-2H-pyran-4-carboxamide hydrochloride] | +++ (+++ ≥6)
O=C(NCCCN1CCC(F)CC1)c1ccc2c(c1)sc1nc(-c3cc4c(cc3F)CCNC4)cn12 [Compound 600, 2-(6-fluoro-1,2,3,4-tetrahydroisoquinolin-7-yl)-N-(3-(4-fluoropiperidin-1-yl)propyl)benzo[d]imidazo[2,1-b]thiazole-7-carboxamide dihydrochloride] | +++ (+++ ≥6)
O=C(NCCCN1CCC(F)CC1)c1ccc2c(c1)sc1nc(-c3cc4c(cc3F)NCC4)cn12 [Compound 602, 2-(6-fluoroindolin-5-yl)-N-(3-(4-fluoropiperidin-1-yl)propyl)benzo[d]imidazo[2,1-b]thiazole-7-carboxamide] | +++ (+++ ≥6)
O=C(NCCCN1CCCCC1)c1ccc2c(c1)sc1nc(-c3ccccc3)cn12 [compound 101, 2-phenyl-N-(3-(piperidin-1-yl)propyl)benzo[d]imidazo[2,1-b]thiazole-7-carboxamide] | +++ (+++ ≥6)
Cc1ccc(-c2cn3c(n2)sc2cc(C(=O)N4CCCCCC4)ccc23)cc1 [compound 102, Azepan-1-yl(2-(p-tolyl)benzo[d]imidazo[2,1-b]thiazol-7-yl)methanone] | + (+ >3 and <5)
O=C(NCCCN1CCCCCC1)c1ccc2c(c1)sc1nc(-c3ccccc3)cn12 [compound 103, N-(3-(azepan-1-yl)propyl)-2-phenylbenzo[d]imidazo[2,1-b]thiazole-7-carboxamide] | +++ (+++ ≥6)
O=C(c1ccc2c(c1)sc1nc(-c3ccc(F)cc3)cn12)N1CCCCCC1 [compound 104, azepan-1-yl(2-(4-fluorophenyl)benzo[d]imidazo[2,1-b]thiazol-7-yl)methanone] | + (+ >3 and <5)
CCCSCCCNC(=O)c1ccc2c(c1)sc1nc(-c3ccc(F)cc3)cn12 [compound 105, 2-(4-fluorophenyl)-N-(3-(propylthio)propyl)benzo[d] imidazo[2,1-b]thiazole-7-carboxamide] | + (+ >3 and <5)

Structure (SMILES) | Myc Efficacy (−LogEC50)
CCOc1ccc(-c2cn3c(n2)sc2cc(C(=O)N4CCCCCC4)ccc23)cc1 [compound 106, azepan-1-yl(2-(4-ethoxyphenyl)benzo[d]imidazo[2,1-b]thiazol-7-yl)methanone] | + (+ >3 and <5)
CCN(CC)CCCNC(=O)c1ccc2c(c1)sc1nc(-c3ccccc3)cn12 [compound 107, N-(3-(diethylamino)propyl)-2-phenylbenzo[d]imidazo [2,1-b]thiazole-7-carboxamide] | ++ (++ ≥5 and <6)
CCCNC(=O)c1ccc2c(c1)sc1nc(-c3ccc(C)cc3)cn12 [compound 108, N-propyl-2-(p-tolyl)benzo[d]imidazo[2,1-b]thiazole-7-carboxamide] | ++ (++ ≥5 and <6)
CCNC(=O)c1ccc2c(c1)sc1nc(-c3ccc(C)cc3)cn12 [compound 109, N-ethyl-2-(p-tolyl)benzo[d]imidazo[2,1-b]thiazole-7-carboxamide] | ++ (++ ≥5 and <6)
CC(=O)NCCCNC(=O)c1ccc2c(c1)sc1nc(-c3ccc(C)cc3)cn12 [compound 110, N-(3-acetamidopropyl)-2-(p-tolyl)benzo[d]imidazo[2,1-b]thiazole-7-carboxamide] | − (− ≤3)
CCN(CC)CCCNC(=O)c1ccc2c(c1)sc1nc(-c3ccc(Cl)cc3)cn12 [compound 111, 2-(4-chlorophenyl)-N-(3-(diethylamino)propyl)benzo [d]imidazo[2,1-b]thiazole-7-carboxamide] | ++ (++ ≥5 and <6)
Cc1ccc(-c2cn3c(n2)sc2cc(C(=O)NC[C@H]4CCNC4)ccc23)cc1 [compound 114, (S)-N-(pyrrolidin-3-ylmethyl)-2-(p-tolyl)benzo[d]imidazo[2,1-b]thiazole-7-carboxamide formate] | ++ (++ ≥5 and <6)
Cc1ccc(-c2cn3c(n2)sc2cc(C(=O)NCCCN)ccc23)cc1 [compound 115, N-(3-aminopropyl)-2-(p-tolyl)benzo[d]imidazo[2,1-b]thiazole-7-carboxamide] | + (+ >3 and <5)
Cc1ccc(-c2cn3c(n2)sc2cc(C(=O)NC[C@@H]4CCNC4)ccc23)cc1 [compound 116, (R)-N-(pyrrolidin-3-ylmethyl)-2-(p-tolyl)benzo[d]imidazo [2,1-b]thiazole-7-carboxamide formate] | ++ (++ ≥5 and <6)
Cc1ccc(-c2cn3c(n2)sc2cc(C(=O)NCC4CNC4)ccc23)cc1 [compound 117, N-(azetidin-3-ylmethyl)-2-(p-tolyl)benzo[d]imidazo [2,1-b]thiazole-7-carboxamide] | + (+ >3 and <5)
CCN(CC)CCCNC(=O)c1ccc2c(c1)sc1nc(-c3cccc(C)c3)cn12 [compound 118, N-(3-(diethylamino)propyl)-2-(m-tolyl)benzo[d]imidazo [2,1-b]thiazole-7-carboxamide] | +++ (+++ ≥6)
CCN1CCC[C@H]1CNC(=O)c1ccc2c(c1)sc1nc(-c3cccc(OC)c3)cn12 [compound 119, (S)-N-((1-ethylpyrrolidin-2-yl)methyl)-2-(3-methoxyphenyl)benzo[d] imidazo[2,1-b]thiazole-7-carboxamide] | ++ (++ ≥5 and <6)
Cc1ccc(-c2cn3c(n2)sc2cc(C(=O)NCCN)ccc23)cc1 [compound 122, N-(2-aminoethyl)-2-(p-tolyl)benzo[d]imidazo[2,1-b]thiazole-7-carboxamide] | + (+ >3 and <5)
CCN(CC)CCCNC(=O)c1ccc2c(c1)sc1nc(-c3ccccc3C)cn12 [compound 123, N-(3-(diethylamino)propyl)-2-(o-tolyl)benzo[d]imidazo [2,1-b]thiazole-7-carboxamide] | ++ (++ ≥5 and <6)
CCN(CC)CCCNC(=O)c1ccc2c(c1)sc1nc(-c3ccccc3Cl)cn12 [compound 124, 2-(2-ehlorophenyl)-N-(3-(diethylamino)propyl)benzo [d]imidazo[2,1-b]thiazole-7-carboxamide] | ++ (++ ≥5 and <6)
CCN(CC)CCCNC(=O)c1ccc2c(c1)sc1nc(-c3ccc(C(=O)NC)cc3)cn12 [compound 125, N-(3-(diethylamino)propyl)-2-(4-(methylcarbamoyl)phenyl) benzo[d]imidazo[2,1-b]thiazole-7-carboxamide] | ++ (++ ≥5 and <6)
